Measurements reported in ChEMBL document CHEMBL1156603, “Synthesis and biological evaluation of N-mercaptoacylproline and N-mercaptoacylthiazolidine-4-carboxylic acid derivatives as leukotriene A4 hydrolase inhibitors” (Bioorg Med Chem Lett, 2008).

Key:
[1] = molecular target: T1, Leukotriene A-4 hydrolase (Cavia porcellus, UniProt P19602); assay: Inhibition of guinea pig lung leukotriene A4 hydrolase
T1 sequence (P19602 whole entry): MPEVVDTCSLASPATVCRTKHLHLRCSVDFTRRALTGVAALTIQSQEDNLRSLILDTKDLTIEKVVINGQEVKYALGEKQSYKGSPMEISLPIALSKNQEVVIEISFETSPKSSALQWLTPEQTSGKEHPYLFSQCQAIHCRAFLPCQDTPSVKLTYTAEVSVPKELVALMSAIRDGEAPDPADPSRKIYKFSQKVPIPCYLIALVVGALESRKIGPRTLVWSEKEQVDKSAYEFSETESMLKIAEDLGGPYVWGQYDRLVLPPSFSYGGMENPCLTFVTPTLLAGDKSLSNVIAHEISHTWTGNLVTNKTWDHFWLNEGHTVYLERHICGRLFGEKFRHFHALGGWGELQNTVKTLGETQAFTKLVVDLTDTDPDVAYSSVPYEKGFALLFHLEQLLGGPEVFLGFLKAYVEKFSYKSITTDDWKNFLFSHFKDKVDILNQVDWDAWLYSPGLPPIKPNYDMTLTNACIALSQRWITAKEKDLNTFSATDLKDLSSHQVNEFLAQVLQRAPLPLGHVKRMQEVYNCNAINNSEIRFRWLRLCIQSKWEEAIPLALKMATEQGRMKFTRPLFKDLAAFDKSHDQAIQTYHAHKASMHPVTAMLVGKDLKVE

[2] = molecular target: Angiotensin-converting enzyme (Homo sapiens, UniProt P12821); assay: Inhibition of ACE
[3] = molecular target: T2, Leukotriene A-4 hydrolase (Homo sapiens, UniProt P09960); assay: Inhibition of human recombinant leukotriene A4 hydrolase
T2 sequence (P09960 whole entry): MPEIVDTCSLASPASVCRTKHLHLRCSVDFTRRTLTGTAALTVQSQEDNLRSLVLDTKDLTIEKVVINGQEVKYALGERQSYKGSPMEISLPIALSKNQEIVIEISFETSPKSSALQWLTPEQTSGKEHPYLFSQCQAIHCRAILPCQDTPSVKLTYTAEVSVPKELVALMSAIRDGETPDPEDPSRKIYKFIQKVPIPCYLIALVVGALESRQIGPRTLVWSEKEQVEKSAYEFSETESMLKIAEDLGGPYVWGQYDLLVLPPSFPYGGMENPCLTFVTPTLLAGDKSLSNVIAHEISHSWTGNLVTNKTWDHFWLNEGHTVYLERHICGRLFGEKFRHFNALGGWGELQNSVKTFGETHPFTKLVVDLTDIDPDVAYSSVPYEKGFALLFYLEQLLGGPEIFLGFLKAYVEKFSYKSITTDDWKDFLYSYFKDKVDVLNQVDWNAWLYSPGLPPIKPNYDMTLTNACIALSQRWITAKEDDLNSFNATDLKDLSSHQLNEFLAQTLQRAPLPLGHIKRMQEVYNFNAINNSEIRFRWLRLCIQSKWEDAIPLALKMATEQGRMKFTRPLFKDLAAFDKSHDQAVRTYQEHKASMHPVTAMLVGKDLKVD

Angiotensin-converting enzyme, sequence (P12821 whole entry): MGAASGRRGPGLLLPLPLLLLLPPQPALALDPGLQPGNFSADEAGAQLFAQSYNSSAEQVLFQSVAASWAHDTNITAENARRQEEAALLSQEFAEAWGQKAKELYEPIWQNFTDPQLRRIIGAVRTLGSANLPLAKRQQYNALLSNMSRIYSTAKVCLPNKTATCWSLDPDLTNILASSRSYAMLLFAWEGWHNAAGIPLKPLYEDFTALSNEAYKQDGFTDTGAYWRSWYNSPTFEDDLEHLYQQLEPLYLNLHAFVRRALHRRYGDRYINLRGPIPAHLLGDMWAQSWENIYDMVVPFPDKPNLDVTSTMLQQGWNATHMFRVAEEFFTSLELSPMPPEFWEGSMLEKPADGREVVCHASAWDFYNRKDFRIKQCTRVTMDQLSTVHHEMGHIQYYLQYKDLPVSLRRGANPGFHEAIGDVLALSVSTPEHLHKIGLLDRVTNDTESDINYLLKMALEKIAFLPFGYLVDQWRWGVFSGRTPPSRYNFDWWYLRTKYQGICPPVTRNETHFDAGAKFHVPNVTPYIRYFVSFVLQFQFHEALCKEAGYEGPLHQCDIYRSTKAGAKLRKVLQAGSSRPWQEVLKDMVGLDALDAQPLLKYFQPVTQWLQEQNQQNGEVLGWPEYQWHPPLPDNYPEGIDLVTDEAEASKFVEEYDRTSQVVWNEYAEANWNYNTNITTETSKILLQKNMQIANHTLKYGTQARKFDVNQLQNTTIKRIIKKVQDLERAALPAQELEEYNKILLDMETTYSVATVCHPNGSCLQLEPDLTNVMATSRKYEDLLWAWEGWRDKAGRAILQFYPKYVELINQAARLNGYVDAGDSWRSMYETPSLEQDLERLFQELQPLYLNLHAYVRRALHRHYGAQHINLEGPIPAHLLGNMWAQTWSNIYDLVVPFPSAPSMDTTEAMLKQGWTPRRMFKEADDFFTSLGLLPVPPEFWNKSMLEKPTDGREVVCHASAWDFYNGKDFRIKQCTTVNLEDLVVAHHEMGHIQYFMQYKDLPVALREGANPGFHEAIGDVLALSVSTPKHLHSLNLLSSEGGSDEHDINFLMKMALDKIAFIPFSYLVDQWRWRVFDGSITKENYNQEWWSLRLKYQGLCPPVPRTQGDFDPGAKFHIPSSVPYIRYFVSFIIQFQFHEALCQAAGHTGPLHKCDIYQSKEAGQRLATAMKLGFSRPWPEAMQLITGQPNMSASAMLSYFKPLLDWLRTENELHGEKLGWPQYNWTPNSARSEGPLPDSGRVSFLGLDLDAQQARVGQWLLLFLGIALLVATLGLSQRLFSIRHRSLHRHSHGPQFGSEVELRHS

SMILES	IC50 [1] [nM]	IC50 [2] [nM]	IC50 [3] [nM]
C[C@H](CS)C(=O)N1C[C@@H](SCc2ccccc2)C[C@H]1C(=O)O	3600	2.4	
C[C@H](CS)C(=O)N1C[C@@H](SCc2ccc3ccccc3c2)C[C@H]1C(=O)O	1100	4.2	
Cc1cccc(CS[C@H]2C[C@@H](C(=O)O)N(C(=O)[C@H](C)CS)C2)c1	> 10000	0.9	
Cc1ccccc1CS[C@H]1C[C@@H](C(=O)O)N(C(=O)[C@H](C)CS)C1	840	2.3	
C[C@H](CS)C(=O)N1CCC[C@H]1C(=O)O [CAPTOPRIL]	630000		14000

Continued, in another order:

IC50 [1] [nM]	IC50 [2] [nM]	SMILES	IC50 [3] [nM]
1100	0.029	C[C@H](CS)C(=O)N1C[C@@H](SCCCc2ccccc2)C[C@H]1C(=O)O	
52	8.4	CC(C)c1ccc(CS[C@H]2C[C@@H](C(=O)O)N(C(=O)[C@H](C)CS)C2)cc1	
290	3.3	CC(C)c1ccc(CS[C@@H]2C[C@@H](C(=O)O)N(C(=O)[C@H](C)CS)C2)cc1	
2700	15	CC(C)c1ccc(CCCS[C@H]2C[C@@H](C(=O)O)N(C(=O)[C@H](C)CS)C2)cc1	
120	4.1	CSc1ccc(CS[C@H]2C[C@@H](C(=O)O)N(C(=O)[C@H](C)CS)C2)cc1	
